Laboratory results reported in patent US12030903B2, “Antiviral compounds” (Gilead Sciences, Inc., priority 2020, dated 2024).

Columns and labels:
[1] = test system: Dengue 2, New Guinea strain (NGC); assay: DENV-2 moDC EC50 (qPCR of viral RNA in infected moDCs); assay type: cell-based, New Guinea strain (NGC); human moDCs; details: Dengue virus, human moDCs infected with Dengue 2 NGC, MOI=0.1, 48 hours
Procedure: Example 82. DENV-2 moDC EC50
Human monocyte-derived dendritic cells (moDCs) were derived from CD14+ monocytes (AllCells) cultured in Human Mo-DC Differentiation medium containing GM-CSF and IL-4 (Miltenyi Biotec). On day 7, moDCs were harvested by mechanical disruption, washed and suspended in serum-free RPMI. moDCs were infected with Vero-derived Dengue 2, New Guinea strain (NGC) at a MOI=0.1 for two hours in serum-free RPMI with gentle agitation at 37° C. Cells were washed and resuspended in 10% serum-containing RPMI (Gibco, supplemented with sodium pyruvate, NEAA, Penicillin-Streptomycin). […] were plated in triplicate in 96-well plates with compounds dispensed at graded doses (Hewlett-Packard D300 Digital Dispenser). All wells were normalized to 0.25% DMSO. At 48 hours, cells were washed with 1×PBS and all supernatants removed. Total RNA was extracted using RNEasy 96 plates (Qiagen) and used to generate first-strand cDNA using XLT cDNA 5× Supermix (QuantaBio). cDNA was used as a template in a Taqman qPCR duplex reaction specific to DENV2 viral and GAPDH gene expression. EC50 values were determined using Prism Graphpad software, with normalization to a positive control and no compound negative control wells.

[2] = moDC CC50 (CellTiter Glo viability); assay type: cell-based, Human; details: human, uninfected moDCs
Procedure: Human monocyte-derived dendritic cells (moDCs) were derived from CD14+ monocytes (AllCells) cultured in Human Mo-DC Differentiation medium containing GM-CSF and IL-4 (Miltenyi Biotec). On day 7, moDCs were harvested by mechanical disruption, washed and cultured in triplicate at […] cells/well in 96-well plates with compounds dispensed at graded doses (Hewlett-Packard D300 Digital Dispenser). All wells were normalized to 0.25% DMSO. After 48 hours, CellTiter Glo (Promega) was added and incubated for 10 minutes at room temp before reading on a luminometer. % viability curves were calculated against no compound and no cell control wells. CC50 values were determined using Prism Graphpad software.

[3] = test system: Dengue serotype 2 New Guinea C (NGC) strain; assay: DENV-2 Huh-7 EC50 (qPCR of viral RNA in infected Huh7 cells); assay type: cell-based; details: Dengue virus, DENV2, Huh-7, Huh7 cells infected with Dengue serotype 2 NGC, MOI=0.1, 48 hours
Procedure: Huh7 (Human hepatocarcinoma 7) cells were maintained in 10% FCS-containing DMEM complete media. On the day of the assay, cells were trypsinized (0.1% Trypsin-EDTA), washed and infected for 2 hours in serum-free DMEM with Dengue serotype 2 New Guinea C (NGC) strain at MOI=0.1 with gentle agitation at 37° C. After 2 hours, cells were washed with serum-free media and suspended in 10% FCS-containing DMEM (Gibco, supplemented with sodium pyruvate, NEAA, Penicillin-Streptomycin). 10^5 cells were plated in triplicate in 96-well plates with compounds dispensed at graded doses (Hewlett-Packard D300 Digital Dispenser). All wells were normalized to 0.25% DMSO. At 48 hours, cells were washed with 1× PBS and all supernatants removed. Total RNA was extracted using RNEasy 96 plates (Qiagen) and used to generate first-strand cDNA using XLT cDNA 5× Supermix (QuantaBio). cDNA was used as a template in a Taqman qPCR duplex reaction specific to DENV2 viral and GAPDH gene expression. EC50 values were determined using Prism Graphpad software, with normalization to a positive control and no compound negative control wells.

[4] = Huh-7 CC50 (CellTiter Glo viability); assay type: cell-based, Human; details: human, Huh7 hepatocarcinoma cells
Procedure: Human hepatocarcinoma 7 (Huh7) cells were maintained in 10% FCS-containing complete DMEM. On day of assay, cells were trypsinized with 0.1% Trypsin-EDTA, washed and cultured in triplicate at 1-2×10^4 cells/well in 96-well plates with compounds dispensed at graded doses (Hewlett-Packard D300 Digital Dispenser). All wells were normalized to 0.25% DMSO. After 48 hours, CellTiter Glo (Promega) was added and incubated for 10 minutes at room temp before reading on a luminometer. % viability curves were calculated against no compound and no cell control wells. CC50 values were determined using Prism Graphpad software.

[5] = test system: RSV strain A2; assay: RSV HEp-2 EC50 (infectious cytopathic cell protection assay); assay type: cell-based, RSV strain A2; HEp-2 cells; details: human respiratory syncytial virus, HEp-2, 96 h, read-out: RSV Hep-2 EC50
Procedure: Example 86. RSV HEp-2 EC50
Antiviral activity against RSV is determined using an infectious cytopathic cell protection assay in HEp-2 cells. In this assay, compounds inhibiting viral infection and/or replication produce a cytoprotective effect against the virus-induced cell killing that can be quantified using a cell viability reagent. The techniques used here are novel adaptations of methods described in published literature (Chapman et al., Antimicrob Agents Chemother. 2007, 51(9):3346-53.)
HEp-2 cells are obtained from ATCC (Manassas, VI) and maintained in MEM media supplemented with 10% fetal bovine serum and penicillin/streptomycin. Cells are passaged twice a week and kept at subconfluent stage. Commercial stock of RSV strain A2 (Advanced Biotechnologies, Columbia, MD) is titered before compound testing to determine the appropriate dilution of the virus stock that generates desirable cytopathic effect in HEp-2 cells.
For antiviral tests, HEp-2 cells are grown in large cell culture flasks to near confluency but not fully so. The compounds to be tested are prediluted in DMSO in 384-well compound dilution plates, either in an 8 or 40 sample per plate standardized dose response format. 3-fold serial dilution increments of each test compound are prepared in the plates and test samples are transferred via acoustic transfer apparatus (Echo, Labcyte) at 100 nL per well into cell culture assay 384-well plates. Each compound dilution is transferred in single or quadruplicate samples into dry assay plates, which are stored until assay is ready to go. The positive and negative controls are laid out in opposite on ends of the plate in vertical blocks (1 column).
Subsequently, an infectious mixture is prepared using an appropriate dilution of virus stock previously determined by titration with cells at a density of 50,000/mL and 20 uL/well is added to test plates w/compounds via automation (uFlow, Biotek). Each plate includes negative and positive controls (16 replicates each) to create 0% and 100% virus inhibition standards, respectively. Following the infection with RSV, testing plates are incubated for 4 days in a 37° C. cell culture incubator. After the incubation, a cell viability reagent, Cell TiterGlo (Promega, Madison, WI) is added to the assay plates, which are incubated briefly, and a luminescent readout is measured (Envision, Perkin Elmer) in all the assay plates. The RSV-induced cytopathic effect, percentage inhibition, is determined from the levels of remaining cell viability. […] Various potent anti-RSV tool compounds are used as positive controls for antiviral activity.

[6] = HEp-2 CC50 (cytotoxicity in uninfected HEp-2 cells); assay type: cell-based; details: human, CellTiter Glo
Procedure: Instead, an uninfected cell mixture at the same density is added at 20 uL/well to plates containing prediluted compounds, also at 100 nL/sample. Assay plates are then incubated for 4 days followed by a cell viability test using the same CellTiter Glo reagent addition and measurement of luminescent readouts. Untreated cell and cells treated at 2 μM puromycin (Sigma, St. Louis, MO) serve as 100% and 0% cell viability control, respectively.

Row | Structure (SMILES) | EC50 [1] [nM] | CC50 at 48 h [2] [nM] | EC50 [3] [nM] | CC50 at 48 h [4] [nM] | EC50 [5] [nM] | CC50 at 4 days [6] [nM]
1 | C[C@H](NP(=O)(OC[C@@]1(CF)O[C@@H](c2ccc3c(N)ncnn23)[C@H](O)[C@@H]1O)Oc1ccccc1)C(=O)OCC(C)(C)C (stereo partly drawn) [Example 3, neopentyl ((((2R,3S,4R,5S)-5-(4-aminopyrrolo[2,1-f][1,2,4]triazin-7-yl)-2-(fluoromethyl)-3,4-dihydroxytetrahydrofuran-2-yl)methoxy)(phenoxy)phosphoryl)-L-alaninate] | 156 | > 11100 | 92 | > 25000 | 77 | > 100000
2 | CCOC(=O)[C@H](C)NP(=O)(OC[C@@]1(CF)O[C@@H](c2ccc3c(N)ncnn23)[C@H](O)[C@@H]1O)Oc1ccccc1 (stereo partly drawn) [Example 13, ethyl ((((2R,3S,4R,5S)-5-(4-aminopyrrolo[2,1-f][1,2,4]triazin-7-yl)-2-(fluoromethyl)-3,4-dihydroxytetrahydrofuran-2-yl)methoxy)(phenoxy)phosphoryl)-L-alaninate] | 274 | > 10200 | 487 | > 25000 | 844 | > 89400
3 | CCOCCOCCOC(=O)[C@H](C)NP(=O)(OC[C@@]1(CF)O[C@@H](c2ccc3c(N)ncnn23)[C@H](O)[C@@H]1O)Oc1ccccc1 (stereo partly drawn) [Example 45, 2-(2-ethoxyethoxy)ethyl ((((2R,3S,4R,5S)-5-(4-aminopyrrolo[2,1-f][1,2,4]triazin-7-yl)-2-(fluoromethyl)-3,4-dihydroxytetrahydrofuran-2-yl)methoxy)(phenoxy)phosphoryl)-L-alaninate] | > 5000 | > 25000 | 4580 | > 25000 | 21800 | > 100000
4 | COC(C)(C)COC(=O)[C@H](C)NP(=O)(OC[C@@]1(CF)O[C@@H](c2ccc3c(N)ncnn23)[C@H](O)[C@@H]1O)Oc1ccccc1 (stereo partly drawn) [Example 43, 2-methoxy-2-methylpropyl ((((2R,3S,4R,5S)-5-(4-aminopyrrolo[2,1-f][1,2,4]triazin-7-yl)-2-(fluoromethyl)-3,4-dihydroxytetrahydrofuran-2-yl)methoxy)(phenoxy)phosphoryl)-L-alaninate] | 626 | 17900 | 1200 | > 25000 | 2160 | > 100000
5 | CCCCCCOC(=O)[C@H](C)N[P@](=O)(OC[C@@]1(CF)O[C@@H](c2ccc3c(N)ncnn23)[C@H](O)[C@@H]1O)Oc1ccccc1 (single isomer, unassigned) [Example 19] | 212 | 10900 | 416 | > 25000 | 722 | > 97100
6 | C[C@H](NP(=O)(OC[C@@]1(CF)O[C@@H](c2ccc3c(N)ncnn23)[C@H](O)[C@@H]1O)Oc1ccccc1)C(=O)OC1CCCCC1 (stereo partly drawn) [Example 14, cyclohexyl ((((2R,3S,4R,5S)-5-(4-aminopyrrolo[2,1-f][1,2,4]triazin-7-yl)-2-(fluoromethyl)-3,4-dihydroxytetrahydrofuran-2-yl)methoxy)(phenoxy)phosphoryl)-L-alaninate] | 165 | > 7760 | 205 | > 25000 | 187 | > 100000
7 | CCC(C)(C)COC(=O)[C@H](C)NP(=O)(OC[C@@]1(CF)O[C@@H](c2ccc3c(N)ncnn23)[C@H](O)[C@@H]1O)Oc1ccccc1 (stereo partly drawn) [Example 7, 2,2-dimethylbutyl ((((2R,3S,4R,5S)-5-(4-aminopyrrolo[2,1-f][1,2,4]triazin-7-yl)-2-(fluoromethyl)-3,4-dihydroxytetrahydrofuran-2-yl)methoxy)(phenoxy)phosphoryl)-L-alaninate] | 40 | 6690 | 159 | > 25000 | 24 | > 100000
8 | CC(C)OC(=O)[C@H](C)N[P@](=O)(OC[C@@]1(CF)O[C@@H](c2ccc3c(N)ncnn23)[C@H](O)[C@@H]1O)Oc1ccccc1 (single isomer, unassigned) [Example 12] | 753 | > 25000 | 453 | > 25000 | 1370 | > 100000
9 | CC(C)COC(=O)[C@H](C)NP(=O)(OC[C@@]1(CF)O[C@@H](c2ccc3c(N)ncnn23)[C@H](O)[C@@H]1O)Oc1ccccc1 (stereo partly drawn) [Example 70, isobutyl ((((2R,3S,4R,5S)-5-(4-aminopyrrolo[2,1-f][1,2,4]triazin-7-yl)-2-(fluoromethyl)-3,4-dihydroxytetrahydrofuran-2-yl)methoxy)(phenoxy)phosphoryl)-L-alaninate] | 190 | 3570 | 245 | 10600 | 212 | 69400
10 | CCC(=O)O[C@H]1[C@H](c2ccc3c(N)ncnn23)O[C@](CF)(CO[P@@](=O)(N[C@@H](C)C(=O)OC(C)C)Oc2ccccc2)[C@H]1OC(=O)CC [Example 22, (2R,3S,4S,5S)-5-(4-aminopyrrolo[2,1-f][1,2,4]triazin-7-yl)-2-(fluoromethyl)-2-((((S)-(((S)-1-isopropoxy-1-oxopropan-2-yl)amino)(phenoxy)phosphoryl)oxy)methyl) tetrahydrofuran-3,4-diyl dipropionate] | 735 | > 23600 | 1030 | > 25000 | 2360 | 71700
